Measurements as given in US20240083857A1, “2-Methyl-Quinazolines” (Bayer Pharma Aktiengesellschaft, priority 2017, published 2024).
Structures can show the parent of a compound that is named as a salt.

Columns and labels:
[1] = target: K-Ras^G12C : hSOS1 interaction (Homo sapiens, UniProt Q07889); experiment: Biochemical assay 1: K-Ras^G12C interaction assay with hSOS1 (HTRF); type: binding; conditions: read-out: Assay 1 (KRAS-SOS Interaction) activity expressed as IC50
[2] = target: human SOS1 (loading of human K-Ras^G12C-GDP with fluorescent GTP-analog) (Homo sapiens, UniProt Q07889); experiment: Biochemical assay 3: K-Ras^G12C activation assay by hSOS1 (HTRF); conditions: no GTP; for IC50: read-out: Assay 3 (KRAS-Activation by SOS no GTP) activity expressed as IC50

Compound	IC50 [1]	inhibition at 20 µM ([2]; read-out: Assay 3 (KRAS-Activation by SOS no GTP) activity expressed as % inhibition at 20 μM, at 20 μM)	IC50 [2]
COc1cc2nc(C)nc(NC(C)c3ccc(-c4cc(C)n(C)c4C#N)s3)c2cc1OC (stereo not shown) [Example 286, 3-(5-{1-[(6,7-dimethoxy-2-methylquinazolin-4-yl)amino]ethyl}thiophen-2-yl)-1,5-dimethyl-1H-pyrrole-2-carbonitrile]	16700 nM	36%	
COc1cc2nc(C)nc(NC(C)c3ccc(-c4cscc4C#N)s3)c2cc1OC (stereo not shown) [Example 287, 5-{1-[(6,7-dimethoxy-2-methylquinazolin-4-yl)amino]ethyl}-2,3′-bithiophene-4′-carbonitrile]	5880 nM		5760 nM
CCN(CC)Cc1ccccc1-c1ccc(C(C)Nc2nc(C)nc3cc(OC)c(OC)cc23)s1 (stereo not shown) [Example 288, N-[1-(5-{2-[(diethylamino)methyl]phenyl}thiophen-2-yl)ethyl]-6,7-dimethoxy-2-methylquinazolin-4-amine]	170 nM		247 nM
COc1cc2nc(C)nc(NC(C)c3ccc(-c4ccccc4CN4CCCC(C(N)=O)C4)s3)c2cc1OC (stereo not shown) [Example 290, 1-[2-(5-{1-[(6,7-dimethoxy-2-methylquinazolin-4-yl)amino]ethyl}thiophen-2-yl)benzyl]piperidine-3-carboxamide]	176 nM		159 nM
COc1cc2nc(C)nc(NC(C)c3ccc(-c4ccccc4CN(C)CC(F)F)s3)c2cc1OC (stereo not shown) [Example 291, N-{1-[5-(2-{[(2,2-difluoroethyl)(methyl)amino]methyl}phenyl)thiophen-2-yl]ethyl}-6,7-dimethoxy-2-methylquinazolin-4-amine]	1120 nM		2230 nM
COc1cc2nc(C)nc(NC(C)c3ccc(-c4cc(Cl)ccc4CN)s3)c2cc1OC (stereo not shown) [Example 292, N-[1-{5-[2-(aminomethyl)-5-chlorophenyl]thiophen-2-yl}ethyl]-6,7-dimethoxy-2-methylquinazolin-4-amine]	31.5 nM		41.3 nM
COc1cc2nc(C)nc(NC(C)c3ccc(-c4ccc(F)cc4CNC(=O)c4ncc[nH]4)s3)c2cc1OC (stereo not shown) [Example 293, N-[2-(5-{1-[(6,7-dimethoxy-2-methylquinazolin-4-yl)amino]ethyl}thiophen-2-yl)-5-fluorobenzyl]-1H-imidazole-2-carboxamide]	2750 nM		8200 nM
COc1cc2nc(C)nc(NC(C)c3ccc(-c4ccc(F)cc4CNC(=O)c4cnc[nH]4)s3)c2cc1OC (stereo not shown) [Example 294, N-[2-(5-{1-[(6,7-dimethoxy-2-methylquinazolin-4-yl)amino]ethyl}thiophen-2-yl)-5-fluorobenzyl]-1H-imidazole-5-carboxamide]	3100 nM		8580 nM
COc1cc2nc(C)nc(NC(C)c3ccc(-c4ccc(F)cc4CNC(=O)CNCC(F)(F)F)s3)c2cc1OC (stereo not shown) [Example 295, N-[2-(5-{1-[(6,7-dimethoxy-2-methylquinazolin-4-yl)amino]ethyl}thiophen-2-yl)-5-fluorobenzyl]-N^2-(2,2,2-trifluoroethyl)glycinamide]	980 nM		2780 nM
COc1cc2nc(C)nc(NC(C)c3ccc(-c4ccccc4CNCCO)s3)c2cc1OC (stereo not shown) [Example 297, 2-{[2-(5-{1-[(6,7-dimethoxy-2-methylquinazolin-4-yl)amino]ethyl}thiophen-2-yl)benzyl]amino}ethanol]	46 nM		60.6 nM
COc1cc2nc(C)nc(NC(C)c3ccc(-c4ccccc4CN(C)CCO)s3)c2cc1OC (stereo not shown) [Example 298, 2-{[2-(5-{1-[(6,7-dimethoxy-2-methylquinazolin-4-yl)amino]ethyl}thiophen-2-yl)benzyl](methyl)amino}ethanol]	47.2 nM		58.8 nM
COc1cc2nc(C)nc(NC(C)c3ccc(-c4ccc(F)cc4CNC(=O)CNc4ccccc4)s3)c2cc1OC (stereo not shown) [Example 299, N-[2-(5-{1-[(6,7-dimethoxy-2-methylquinazolin-4-yl)amino]ethyl}thiophen-2-yl)-5-fluorobenzyl]-N^2-phenylglycinamide]	948 nM		1880 nM
COc1cc2nc(C)nc(NC(C)c3ccc(-c4ccccc4CNCC(F)(F)F)s3)c2cc1OC (stereo not shown) [Example 300, 6,7-di methoxy-2-methyl-N-{1-[5-(2-{[(2,2,2-trifluoroethyl)amino]methyl}phenyl)thiophen-2-yl]ethyl}quinazolin-4-amine]	3150 nM		5080 nM
COc1cc2nc(C)nc(NC(C)c3ccc(-c4ccccc4CNc4ccccn4)s3)c2cc1OC (stereo not shown) [Example 301, 6,7-di methoxy-2-methyl-N-[1-(5-{2-[(pyridin-2-ylamino)methyl]phenyl}thiophen-2-yl)ethyl]quinazolin-4-amine]	799 nM		1930 nM
COc1cc2nc(C)nc(NC(C)c3ccc(-c4ccccc4CNc4cc[nH]n4)s3)c2cc1OC (stereo not shown) [Example 302, 6,7-dimethoxy-2-methyl-N-[1-(5-{2-[(1H-pyrazol-3-ylamino)methyl]phenyl}thiophen-2-yl)ethyl]quinazolin-4-amine]	787 nM		1540 nM
COc1cc2nc(C)nc(NC(C)c3ccc(-c4ccccc4CNCC(=O)N4CCc5ccccc5C4)s3)c2cc1OC (stereo not shown) [Example 303, 1-(3,4-dihydroisoquinolin-2(1H)-yl)-2-{[2-(5-{1-[(6,7-dimethoxy-2-methylquinazolin-4-yl)amino]ethyl}thiophen-2-yl)benzyl]amino}ethanone]	724 nM		880 nM
COc1cc2nc(C)nc(NC(C)c3ccc(-c4ccc(F)cc4CNCc4nccn4C)s3)c2cc1OC (stereo not shown) [Example 304, N-[1-{5-[4-fluoro-2-({[(1-methyl-1H-imidazol-2-yl)methyl]amino}methyl)phenyl]thiophen-2-yl}ethyl]-6,7-dimethoxy-2-methylquinazolin-4-amine]	417 nM		399 nM
COc1cc2nc(C)nc(NC(C)c3ccc(-c4ccccc4CN4CCNCC4)s3)c2cc1OC (stereo not shown) [Example 305, 6,7-dimethoxy-2-methyl-N-[1-{5-[2-(piperazin-1-ylmethyl)phenyl]thiophen-2-yl}ethyl]quinazolin-4-amine hydrochloride]	61.6 nM		58.4 nM
COc1cc2nc(C)nc(NC(C)c3ccc(-c4ccc(F)cc4CNC(C)=O)s3)c2cc1OC (stereo not shown) [Example 307, N-[2-(5-{1-[(6,7-dimethoxy-2-methylquinazolin-4-yl)amino]ethyl}thiophen-2-yl)-5-fluorobenzyl]acetamide]	589 nM		780 nM
COc1cc2nc(C)nc(NC(C)c3ccc(-c4ccccc4CN4CCN(C)CC4)s3)c2cc1OC (stereo not shown) [Example 308, 6,7-dimethoxy-2-methyl-N-[1-(5-{2-[(4-methylpiperazin-1-yl)methyl]phenyl}thiophen-2-yl)ethyl]quinazolin-4-amine]	260 nM		220 nM
COc1cc2nc(C)nc(NC(C)c3ccc(-c4ccccc4CN[C@H]4CCN(C)C4=O)s3)c2cc1OC (stereo partly drawn) [Example 309, (3S)-{[2-(5-{1-[(6,7-dimethoxy-2-methylquinazolin-4-yl)amino]ethyl}thiophen-2-yl)benzyl]amino}-1-methylpyrrolidin-2-one]	1320 nM		880 nM
COc1cc2nc(C)nc(NC(C)c3ccc(-c4ccc(F)cc4CNC(=O)c4cc[nH]n4)s3)c2cc1OC (stereo not shown) [Example 310, N-[2-(5-{1-[(6,7-dimethoxy-2-methylquinazolin-4-yl)amino]ethyl}thiophen-2-yl)-5-fluorobenzyl]-1H-pyrazole-3-carboxamide]	5820 nM		5760 nM
COc1cc2nc(C)nc(NC(C)c3ccc(-c4ccccc4CN4CCOCC4)s3)c2cc1OC (stereo not shown) [Example 311, 6,7-dimethoxy-2-methyl-N-[1-{5-[2-(morpholin-4-ylmethyl)phenyl]thiophen-2-yl}ethyl]quinazolin-4-amine]	763 nM		629 nM
COc1cc2nc(C)nc(NC(C)c3ccc(-c4ccccc4CN4CC(O)C4)s3)c2cc1OC (stereo not shown) [Example 312, 1-[2-(5-{1-[(6,7-dimethoxy-2-methylquinazolin-4-yl)amino]ethyl}thiophen-2-yl)benzyl]azetidin-3-ol]	68.2 nM		73.2 nM
COc1cc2nc(C)nc(NC(C)c3ccc(-c4ccccc4CN4CC5(CNC(=O)N5)C4)s3)c2cc1OC (stereo not shown) [Example 313, 2-[2-(5-{1-[(6,7-dimethoxy-2-methylquinazolin-4-yl)amino]ethyl}thiophen-2-yl)benzyl]-2,5,7-triazaspiro[3.4]octan-6-one]	167 nM		150 nM
COc1cc2nc(C)nc(NC(C)c3ccc(-c4ccc(F)cc4CNC(=O)[C@@H]4CCCN4)s3)c2cc1OC (stereo partly drawn) [Example 314, N-[2-(5-{1-[(6,7-dimethoxy-2-methylquinazolin-4-yl)amino]ethyl}thiophen-2-yl)-5-fluorobenzyl]-L-prolinamide]	104 nM		90.1 nM
COc1cc2nc(C)nc(NC(C)c3ccc(-c4ccccc4CNCC(F)F)s3)c2cc1OC (stereo not shown) [Example 315, N-{1-[5-(2-{[(2,2-difluoroethyl)amino]methyl}phenyl)thiophen-2-yl]ethyl}-6,7-dimethoxy-2-methylquinazolin-4-amine]	777 nM		1280 nM
COc1cc2nc(C)nc(NC(C)c3ccc(-c4ccccc4CN4CCC4)s3)c2cc1OC (stereo not shown) [Example 317, N-[1-{5-[2-(azetidin-1-ylmethyl)phenyl]thiophen-2-yl}ethyl]-6,7-dimethoxy-2-methylquinazolin-4-amine]	76 nM		88.4 nM
COc1cc2nc(C)nc(NC(C)c3ccc(-c4ccccc4CN4CC[C@H]4CO)s3)c2cc1OC (stereo partly drawn) [Example 318, {1-[(2S)-(5-{1-[(6,7-dimethoxy-2-methylquinazolin-4-yl)amino]ethyl}thiophen-2-yl)benzyl]azetidin-2-yl}methanol]	171 nM		221 nM
